Assay results reported in patent US10988456B2, “O-aminoheteroaryl alkynyl-containing compound, preparation method therefor, and use thereof” (SHANGHAI INSTITUTE OF MATERIA MEDICA, CHINESE ACADEMY OF …, priority 2017, dated 2021).

Columns and labels:
[1] = Pharmacokinetic experiment in rat (IV and PO, plasma LC-MS/MS); conditions: SD rats
Method: (§1) Ponatinib (AP24534) was administered intravenously (IV) and orally (PO) to SD rats. Blood samples were taken at different time points. LC-MS/MS was used to determine the concentration of compound in the plasma of rats after administration of the test compound, and the relevant pharmacokinetic parameters were calculated to examine oral bioavailability and pharmacokinetic properties of the compound in rats.
as §1, with “Compound HuFGFR267” for “Ponatinib (AP24534)”, “intravenously” for “intravenously (IV)”, “orally” for “orally (PO)”

Ret (V804M) = target: T1, Ret (V804M) (Homo sapiens, UniProt P07949, V804M); experiment: Inhibition of RET-related mutant enzyme activity (ELISA); assay type: biochemical; conditions: measured twice, Mean ± SD
T1 construct: purchased
T1 sequence (P07949 29-1114 V804M): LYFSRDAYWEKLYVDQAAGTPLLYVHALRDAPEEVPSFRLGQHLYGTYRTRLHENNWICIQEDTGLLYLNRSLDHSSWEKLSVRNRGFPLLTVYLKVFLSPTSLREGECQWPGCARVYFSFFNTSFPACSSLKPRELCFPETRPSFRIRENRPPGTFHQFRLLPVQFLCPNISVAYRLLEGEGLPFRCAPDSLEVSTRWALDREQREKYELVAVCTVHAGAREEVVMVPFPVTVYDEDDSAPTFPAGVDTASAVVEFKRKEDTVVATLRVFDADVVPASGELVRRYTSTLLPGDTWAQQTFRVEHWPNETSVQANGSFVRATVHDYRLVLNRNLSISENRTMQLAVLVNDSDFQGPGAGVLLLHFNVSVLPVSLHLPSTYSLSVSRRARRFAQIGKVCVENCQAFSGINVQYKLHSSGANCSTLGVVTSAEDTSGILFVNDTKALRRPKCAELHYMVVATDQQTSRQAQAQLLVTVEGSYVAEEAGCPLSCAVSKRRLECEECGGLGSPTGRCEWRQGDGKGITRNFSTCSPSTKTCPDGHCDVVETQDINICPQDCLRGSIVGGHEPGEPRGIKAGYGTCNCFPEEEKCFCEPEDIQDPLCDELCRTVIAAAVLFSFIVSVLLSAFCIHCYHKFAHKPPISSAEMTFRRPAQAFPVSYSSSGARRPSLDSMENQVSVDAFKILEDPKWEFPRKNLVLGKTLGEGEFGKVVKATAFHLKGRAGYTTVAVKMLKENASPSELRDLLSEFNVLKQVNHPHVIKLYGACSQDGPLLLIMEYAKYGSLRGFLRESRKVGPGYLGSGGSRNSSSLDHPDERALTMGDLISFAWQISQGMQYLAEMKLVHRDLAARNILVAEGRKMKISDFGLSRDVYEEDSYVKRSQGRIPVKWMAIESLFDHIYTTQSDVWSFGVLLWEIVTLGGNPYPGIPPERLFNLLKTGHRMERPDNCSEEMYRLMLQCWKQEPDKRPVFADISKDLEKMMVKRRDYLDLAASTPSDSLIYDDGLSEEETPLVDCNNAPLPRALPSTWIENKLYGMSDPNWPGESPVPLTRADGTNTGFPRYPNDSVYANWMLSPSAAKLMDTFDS
Method: Enzyme reaction substrate Poly(Glu, Tyr)4:1 was diluted with potassium-free PBS (10 mM sodium phosphate buffer, 150 mM NaCl, pH 7.2-7.4) to 20 μg/mL. The enzyme label plate was coated with 125 μL/well. The reaction was conducted under 37° C. for 12-16 hours. After the liquid was removed from the wells, the plate was washed three times with 200 μL/well of T-PBS (PBS containing 0.1% Tween-20), each for 5 minutes. The enzyme plate was dried in 37° C. dryer for 1-2 hours.
50 μL ATP solution diluted with buffer (50 mM HEPES pH 7.4, 50 mM MgCl2, 0.5 mM MnCl2, 0.2 mM Na3VO4, 1 mM DTT) to a final concentration of 5 μM was added into each well. The compound was diluted with DMSO to a suitable concentration (1 μL/well) or the well contained the corresponding concentration of DMSO (negative control well) Then various kinase recombinant proteins diluted with 49 μL of reaction buffer was added to initiate the reaction. Each experiment required duplicate enzyme-free control well. The reaction was carried out for 1 hour on a 37° C. Shaker (100 rpm). […] The reaction was quenched with 2M H2SO4 (50 μL/well), and read at 490 nm using a tunable microplate reader SPECTRA MAX 190.
The inhibition ratio of the sample was determined by the following formula: […]
The IC50 values were obtained via four-parameter regression analysis using the software supplied with the microplate reader. […]

CN1CCN(Cc2ccc(NC(=O)c3ccc(Cl)c(C#Cc4cccnc4N)c3)cc2C(F)(F)F)CC1 [Example 1, 3-(2-aminopyridine-3-ethynyl)-4-chloro-N-(4-((4-methylpiperazin-1-yl)methylene)-3-(trifluoromethyl)phenyl)benzamide]
AUC0-t ([1]; IV (2 mg/kg)): 2720 ng·h/mL
CLplasma ([1]; IV (2 mg/kg)): 11.9 mL/min/kg
T1/2 ([1]; IV (2 mg/kg)): 6.00 h
Vdss ([1]; IV (2 mg/kg)): 4.88 L/kg
AUC0-t ([1]; PO (10 mg/kg)): 4961 ng·h/mL
Cmax ([1]; PO (10 mg/kg)): 346 ng/mL
T1/2 ([1]; PO (10 mg/kg)): 10.5 h
Tmax ([1]; PO (10 mg/kg)): 5.33 h
F ([1]; PO (10 mg/kg) vs IV (2 mg/kg)): 36.5%
IC50 (Ret (V804M)): 8.4 ± 1.7 nM
